From publication PMC8269059, “Glycyrrhizin Derivatives Suppress Cancer Chemoresistance by Inhibiting Progesterone Receptor Membrane Component 1” (Cancers, 2021)
Where two headings read alike, the source gives them in different places.

What was measured:
[1] = system: EGF signaling; assay: EGF signaling (western blot) in HuH7 cells; format: cell-based, human; details: HuH7, EGF for 5 min
Procedure: For analysis of EGFR signaling, cells were incubated overnight with GL or GlucoGL, and then EGF (100 ng/mL) was added for 5 min. Cells were lysed with RIPA buffer, and the lysates were subjected to SDS-PAGE and visualized through western blotting using antibodies against PGRMC1, EGFR, phospho-Y1068 EGFR, AKT, phospho-S473AKT, ERK, and phospho-T185 Y187 ERK.

[2] = system: HCT116 cells; assay: Chemosensitivity MTT assay in HCT116 cells; format: cell-based, human; details: Homo sapiens, HCT-116, HCT116 cell viability, MTT
Procedure: The HCT116 cells, a human colon cancer cell line, and HuH7 cells, a human hepatoma cell line, were maintained in Dulbecco’s modified Eagle’s medium (DMEM) containing 10% fetal bovine serum (FBS) and 1% penicillin-streptomycin at 37 °C in a 5% CO2 humidified incubator.
To analyze the chemosensitivity of HCT116 or HuH7 cells, the cells were incubated with erlotinib (20 µM) or CDDP (10 µM) and either GL or GL derivatives for 24 h on a 96-well plate. Cell viability was determined using an MTT assay kit (Millipore, Burlington, MA, USA) according to the manufacturer’s instructions.

[3] = biological target: T1, EGFR kinase (Homo sapiens, UniProt P00533); assay: EGFR kinase assay in vitro; format: biochemical; details: Kinase-Glo, erlotinib 100nM
T1 construct: purchased BPS Bioscience
Procedure: The assay was performed using an EGFR kinase assay kit (BPS Bioscience, San Diego, CA, USA). EGFR kinase activity was analyzed by measuring the amount of ATP remaining following the kinase reaction based on luminescent intensity using Kinase-Glo MAX (Promega, Madison, WI, USA). A mixture of kinase buffer, ATP, and PTK substrate was incubated with EGFR (1 ng/µL) with or without GL or GlucoGL at 30 °C for 40 min. Kinase-Glo max was added to each well and incubated at room temperature for 15 min under light protection. Luminescent intensity was measured using a microplate reader.

[4] = biological target: T2, HMGB1 (Homo sapiens, UniProt P09429); assay: ITC binding to HMGB1; details: HMGB1 80 µM, compound 3 mM
T2 construct: human HMGB1 full-length cDNA was cloned from cDNA library of HCT116 cells; GST (N, cleaved yes); made in house; host or cells: E. coli BL21 (DE3)
Description: Bacterial expression vectors pGEX-PGRMC1 (human PGRMC1 intracellular domain residues 43-195) and mammalian FLAG-tagged expression vector pCMV-FLAG-PGRMC1 (full-length) were constructed as described previously. Expression vectors for PGRMC1 point mutants were generated by site-directed mutagenesis with PCR. For construction of HMGB1 expression vector, human HMGB1 full-length cDNA was cloned from cDNA library of HCT116 cells using the primers (Forward: 5′-[…]-3′, Reverse: 5′-[…]-[…]-3′), digested with Bam HI and Sal I, and then ligated into pGEX6P1.
Expression vectors (pGEX-PGRMC1 (residues 43-195) or pGEX-HMGB1) were transformed into BL21 (DE3) competent E. coli cells, and the cells incubated in LB medium with ampicillin at 37 °C until the OD600 reached 0.8. Protein expression was induced by adding 1 mM isopropyl-β-thiogalactopyranoside (IPTG) and incubating at 37 °C for 4 h. […]
ITC experiments were performed at 298 K with ITC-Buffer (50 mM phosphate [pH 7.0]) using a MicroCal iTC200 (Malvern Panalytical, Malvern, UK). […] Binding isotherms were analyzed using SEDPHAT [35]. The binding of AG205 to apo- or heme-PGRMC1 (100 μM) was analyzed using a concentration of 3 mM containing 1% DMSO. […]

[5] = biological target: T3, interaction between PGRMC1 and CYP3A4 (Homo sapiens, UniProt O00264); assay: In vitro binding assay between PGRMC1 and CYP3A4; details: purified proteins, co-IP
T3 construct: FLAG-PGRMC1 (a.a. 44-195); Sigma (CYP3A4 only) C4982 (CYP3A4 only)
Procedure: For in vitro binding assays between PGRMC1 and CYP3A4, 1 μg of purified CYP3A4 proteins (Sigma: C4982) were incubated with 10 μg of FLAG-PGRMC1 (a.a. 44-195) treated with or without GL or GlucoGL in 500 μL of binding buffer containing 20 mM HEPES-NaOH (pH 7.9), 100 mM NaCl, 0.2 mM EDTA, 10% glycerol, and 0.1% NP40 for 60 min at room temperature. Then, 10 μL of equilibrated anti-FLAG (M2) agarose was added to the mixture, which was then incubated for 60 min at room temperature. Bound proteins were washed three times with 200 μL of binding buffer and eluted with 10 μL of 2 μg/mL FLAG elution peptide (Sigma: F4799). The eluates were subjected to SDS–PAGE and visualized by Western blotting using antibodies against CYP3A4 (Santa Cruz: sc-53850) and FLAG.

[6] = biological target: T4, interaction between PGRMC1 and EGFR (Homo sapiens, UniProt O00264); assay: Co-immunoprecipitation of PGRMC1 and EGFR in HuH7 cells; format: cell-based; details: HuH7, FLAG-PGRMC1 co-IP, 12 h treatment
T4 construct: mammalian FLAG-tagged expression vector pCMV-FLAG-PGRMC1 (full-length); expressed in transfected cells; host or cells: HCT116 or HuH7
Procedure: An expression vector of pCMV-3xFLAG-PGRMC1 or an empty vector was transfected into HCT116 cells or HuH7 cells using the transfection reagent Lipofectamine 2000 (Invitrogen). The cells were incubated overnight with either GL or GlucoGL. Cells were then lysed with NP40 lysis buffer (20 mM Tris-HCl [pH 7.5], 150 mM NaCl, and 1% NP40). The lysates were incubated with 10 μL of equilibrated anti-FLAG (M2) agarose for 60 min at room temperature. Bound proteins were washed three times and subjected to SDS-PAGE and visualized through western blotting using antibodies against FLAG, EGFR, and LDLR. For analysis of the endogenous PGRMC1-binding with FLAG-PGRMC1, HCT116 cells (1 × 10^7 cells) were treated with vehicle or 250 μM SA and/or 10 μM hemin for 48 h, and the cell lysates were co-immunoprecipitated with anti-FLAG (M2) agarose. Bound proteins (endogenous PGRMC1 and FLAG-tagged PGRMC1) were visualized through western blotting using antibody against PGRMC1.

[7] = with CDDP (10 µM), read-out: IC50 CDDP
[8] = with erlotinib (20 µM), read-out: IC50 Erlotinib

T3 sequence (O00264 44-195): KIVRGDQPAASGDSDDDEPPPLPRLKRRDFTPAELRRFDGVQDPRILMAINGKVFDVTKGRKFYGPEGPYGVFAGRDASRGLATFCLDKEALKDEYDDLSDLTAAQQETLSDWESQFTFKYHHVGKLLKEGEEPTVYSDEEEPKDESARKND
T1 sequence (P00533 25-1210): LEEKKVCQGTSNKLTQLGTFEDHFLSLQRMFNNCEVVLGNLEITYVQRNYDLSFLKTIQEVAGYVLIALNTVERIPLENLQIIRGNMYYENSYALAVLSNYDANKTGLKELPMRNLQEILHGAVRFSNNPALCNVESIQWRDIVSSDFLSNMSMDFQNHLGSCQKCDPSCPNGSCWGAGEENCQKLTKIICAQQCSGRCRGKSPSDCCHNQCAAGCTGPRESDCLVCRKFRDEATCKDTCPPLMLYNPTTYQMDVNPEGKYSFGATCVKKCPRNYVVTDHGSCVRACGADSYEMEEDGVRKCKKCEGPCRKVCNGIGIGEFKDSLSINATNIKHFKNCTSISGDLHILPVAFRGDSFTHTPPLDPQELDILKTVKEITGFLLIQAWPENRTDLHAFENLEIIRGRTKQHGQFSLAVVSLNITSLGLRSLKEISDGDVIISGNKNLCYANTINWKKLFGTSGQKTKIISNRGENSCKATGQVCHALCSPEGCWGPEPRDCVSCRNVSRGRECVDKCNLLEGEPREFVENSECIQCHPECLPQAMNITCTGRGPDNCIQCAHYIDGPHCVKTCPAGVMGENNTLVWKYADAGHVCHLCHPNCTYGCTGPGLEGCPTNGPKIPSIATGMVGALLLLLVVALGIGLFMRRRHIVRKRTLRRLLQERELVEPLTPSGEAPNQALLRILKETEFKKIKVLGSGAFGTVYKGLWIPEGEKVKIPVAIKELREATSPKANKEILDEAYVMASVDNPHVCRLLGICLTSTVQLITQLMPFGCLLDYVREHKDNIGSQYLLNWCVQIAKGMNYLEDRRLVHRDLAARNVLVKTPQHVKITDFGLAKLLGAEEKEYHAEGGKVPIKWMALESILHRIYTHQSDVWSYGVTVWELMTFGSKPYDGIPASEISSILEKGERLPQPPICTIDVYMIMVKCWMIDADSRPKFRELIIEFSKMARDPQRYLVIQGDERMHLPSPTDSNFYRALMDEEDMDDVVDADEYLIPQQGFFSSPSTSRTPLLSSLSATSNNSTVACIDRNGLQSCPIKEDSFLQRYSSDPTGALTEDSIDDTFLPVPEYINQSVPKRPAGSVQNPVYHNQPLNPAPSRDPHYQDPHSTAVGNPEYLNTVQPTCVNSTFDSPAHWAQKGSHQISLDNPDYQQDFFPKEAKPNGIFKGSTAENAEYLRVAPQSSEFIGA
T2 sequence (P09429 whole entry): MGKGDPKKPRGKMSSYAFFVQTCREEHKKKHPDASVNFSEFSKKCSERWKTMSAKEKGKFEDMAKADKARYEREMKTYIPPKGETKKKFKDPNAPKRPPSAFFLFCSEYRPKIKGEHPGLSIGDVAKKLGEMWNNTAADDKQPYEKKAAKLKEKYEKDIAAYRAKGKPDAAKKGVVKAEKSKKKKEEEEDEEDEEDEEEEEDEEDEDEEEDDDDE
T4 sequence (O00264 whole entry): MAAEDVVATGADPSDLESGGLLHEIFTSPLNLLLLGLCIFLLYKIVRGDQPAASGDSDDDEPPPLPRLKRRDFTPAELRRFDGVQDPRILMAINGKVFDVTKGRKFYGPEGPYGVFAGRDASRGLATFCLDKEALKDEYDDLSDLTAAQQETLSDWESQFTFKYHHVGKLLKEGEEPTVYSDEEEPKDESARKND

IC50 [2, 7] | IC50 [2, 8] | EGFR kinase activity [3] | KD for HMGB1 [4] | Interaction between PGRMC1 and CYP3A4 [5] | Interaction between PGRMC1 and EGFR [6] | Kd [4] | SMILES | EGF signaling [1]
14.9 µM | 15.7 µM | no inhibitory effect | weak binding | interfered with the interaction | inhibited the interaction | – | CC1(C(=O)O)CCC2(C)CCC3(C)C(=CC(=O)C4C5(C)CCC(OC6OC(C(=O)O)C(O)C(O)C6OC6OC(CO)C(O)C(O)C6O)C(C)(C)C5CCC43C)C2C1 (centres unmarked) [Glucoglycyrrhizin (GlucoGL), Glucoglycyrrhizin] | suppressed the EGF signaling
53.1 µM | 52 µM | no inhibitory effect | – | interfered with the interaction | inhibited the interaction | 223 µM | CC1(C)[C@@H](O[C@H]2O[C@H](C(=O)O)[C@@H](O)[C@H](O)[C@H]2O[C@@H]2O[C@H](C(=O)O)[C@@H](O)[C@H](O)[C@H]2O)CC[C@]2(C)[C@H]3C(=O)C=C4[C@@H]5C[C@@](C)(C(=O)O)CC[C@]5(C)CC[C@@]4(C)[C@]3(C)CC[C@@H]12 [Glycyrrhizin (GL), Glycyrrhizin] | suppressed the EGF signaling
